Here are results for four compounds from patent US20240368133A1, “Compounds for the Treatment of Pain, in Particular, Neuropathic Pain, and/or Other Diseases or Disorders that are Associated with AT2R and/or AT2R Mediated Signaling” (Confo Therapeutics N.V., priority 2021, published 2024).

A word on the microsomal CLint: it is the rate of metabolic loss divided by the concentration. A higher microsomal CLint goes with rapid turnover. By inhibition is commonly meant the percentage by which the read-out fell short of the control.

SMILES strings stand for the structures.

The nature of series [1]: Liver microsomal stability, human. In kind it is in vitro ADME. As to conditions: pH 7.4, liver microsomes.
Another series addresses CYP1A2 (Homo sapiens (Human), UniProt P05177). Nature of the series: in vitro. The method, then: (§1) The aim of this assay is to determine the inhibitory potential of a test compound. A major concern for drug-drug-interaction is cytochrome P450 inhibition. Reversible CYP inhibition was determined in human liver microsomes using specific probe substrates for human cytochrome P450 isoenzymes CYP1A2, 2C9, 2C19, 2D6 and 3A4.
(§2) The potential for CYP450 inhibition was assessed by performing in vitro inhibition studies using fluorogenic CYP450 substrates with the corresponding CYP450 enzymes and NADPH regeneration system (Vivid CYP450 Screening Kits) with some minor changes to the manufacturer's protocols. The fluorescent signal produced from reaction is directly proportional to the cytochrome P450 activity. In the cases when tested compounds interfere with the CYP450 enzyme-substrate reaction, the fluorescent signal decreases. In brief, the tested compounds were first dissolved in DMSO at 100× concentration (1 mM), and diluted in buffer to 2.5× concentration (25 μM). Then the 2.5× compound solutions were mixed with the Master Pre-mix consisting of Human CYP450+Oxidoreductase and NADP+Regeneration System (glucose-6-phosphate and glucose-6-phosphate dehydrogenase). After 10 minutes pre-incubation, the enzymatic reaction was initiated by the addition of a mix of NADPH and the appropriate CYP450 substrates. The plate was incubated for the desired reaction time (25 min for CYP1A2, CYP2C9, CYP2D6, and CYP3A4, 60 min for CYP2C19) after which Stop Reagent was added and fluorescence measured using SpectraMax Paradigm Multi-Mode Microplate Reader. All test points were performed in quadruplicates at concentration 10 μM (1% DMSO).
A 10 mM stock solution of test compound is prepared in methanol. This stock is further serially diluted 1:3 in methanol and then added to mixture containing 50 mM potassium phosphate buffer pH7.4, human liver microsomes (BD Gentest) and probe substrate. After pre-warming 5 min at 37° C., the reaction is started by adding co-factor mix ([…] glucose-6-phosphate, 1.7 mg/mL NADP, 6 U/mL of glucose-6-phosphate dehydrogenase), resulting in a final concentration of test compound at 10 μM (2% MeOH).
Final concentrations of co-factor mix components are as follows: 1.56 mg/mL glucose-6-phosphate, 0.34 mg/mL NADP, 1.2 U/mL of glucose-6-phosphate dehydrogenase.
(§3) After incubation at 37° C., the reaction (aliquot of 50 μL) is terminated with 150 μL CH3CN:MeOH (2:1) solution with internal standard (warfarin for 2C9, diclofenac for all other tested isoforms). Samples are centrifuged and the supernatant fractions analyzed by LC-MS/MS.
(§4) The instrument responses (ratio of test compound and internal standard peak areas) are referenced to those for solvent controls (assumed as 100%) in order to determine the percentage reduction in probe metabolism. Percent of control activity vs. concentration plots are generated and fitted using GraphPad Prism software to generate IC50.

In a further series the target is CYP2C9 (Homo sapiens (Human), UniProt P11712). Nature of the series: CYP inhibition, CYP2C9. In kind it is in vitro ADME. The settings on record: test compound at 10 μM, read-out: % Inhibition (PIN) 2C9. As for the experimental part:
as §1
as §2, with “In brief, the tested compounds were first dissolved in DMSO at 100× concentration (1 mM), and diluted in buffer to 2.5× concentration (25 μM). Then the 2.5× compound solutions were mixed with the Master Pre-mix consisting of Human CYP450+Oxidoreductase and NADP+Regeneration System (glucose-6-phosphate and glucose-6-phosphate dehydrogenase).” left out
A 10 mM stock solution of test compound is prepared in methanol. This stock is further serially diluted 1:3 in methanol and then added to mixture containing 50 mM potassium phosphate buffer pH7.4, human liver microsomes (BD Gentest) and probe substrate. […]
as §3, §4

Sequence of CYP1A2 (P05177 whole entry): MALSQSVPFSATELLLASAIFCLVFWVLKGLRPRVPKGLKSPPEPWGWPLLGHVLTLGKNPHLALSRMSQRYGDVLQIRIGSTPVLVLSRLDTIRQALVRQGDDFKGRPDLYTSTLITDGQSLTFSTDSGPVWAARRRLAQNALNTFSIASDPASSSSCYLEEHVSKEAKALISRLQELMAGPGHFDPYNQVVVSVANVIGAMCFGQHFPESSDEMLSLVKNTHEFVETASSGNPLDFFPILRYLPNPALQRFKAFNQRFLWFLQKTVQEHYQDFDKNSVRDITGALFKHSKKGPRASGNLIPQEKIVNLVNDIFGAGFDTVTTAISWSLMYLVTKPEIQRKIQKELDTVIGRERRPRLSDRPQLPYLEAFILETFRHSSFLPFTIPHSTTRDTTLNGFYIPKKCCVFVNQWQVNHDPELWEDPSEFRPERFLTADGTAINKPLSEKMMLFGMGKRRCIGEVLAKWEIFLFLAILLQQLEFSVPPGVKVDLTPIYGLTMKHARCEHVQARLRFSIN
Sequence of CYP2C9 (P11712 whole entry): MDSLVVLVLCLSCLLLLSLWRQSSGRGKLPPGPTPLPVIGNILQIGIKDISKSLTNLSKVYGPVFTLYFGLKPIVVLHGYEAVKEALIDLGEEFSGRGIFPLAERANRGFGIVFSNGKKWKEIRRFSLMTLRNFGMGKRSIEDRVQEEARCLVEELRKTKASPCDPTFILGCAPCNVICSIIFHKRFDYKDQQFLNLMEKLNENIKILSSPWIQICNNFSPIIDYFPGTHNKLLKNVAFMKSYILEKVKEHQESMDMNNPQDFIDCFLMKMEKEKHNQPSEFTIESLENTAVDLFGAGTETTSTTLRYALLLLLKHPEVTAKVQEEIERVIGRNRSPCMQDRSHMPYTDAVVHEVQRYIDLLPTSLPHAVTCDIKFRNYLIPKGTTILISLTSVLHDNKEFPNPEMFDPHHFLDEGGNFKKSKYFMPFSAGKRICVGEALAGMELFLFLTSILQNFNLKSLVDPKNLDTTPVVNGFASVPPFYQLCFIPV

`CC(C)Cc1ccc(-c2nn[nH]n2)c(N2CCN(Cc3nc4ccccc4c(=O)[nH]3)CC2)c1` [Compound A-31, 2-[[4-[5-isobutyl-2-(2H-tetrazol-5-yl)phenyl]piperazin-1-yl]methyl]-3H-quinazolin-4-one] yielded a microsomal CLint in series [1] of 8 µL/min/mg. For the same compound, the values for the inhibition at 10 µM against CYP1A2 and on CYP2C9 were 6.09% and 73%, respectively.
In the same order, the values of `CC(C)Cc1ccc(-c2nn[nH]n2)c(N2CCN(Cc3ccnn3C)CC2)c1` [Compound A-84, 1-[5-isobutyl-2-(2H-tetrazol-5-yl)phenyl]-4-[(1-methylpyrazol-5-yl)methyl]piperazine] are 40 µL/min/mg, 5.6% and 56.2%.
In the same order, the values of `CC(C)Cc1cc(F)c(-c2nn[nH]n2)c(N2CCN(Cc3cccnn3)C(C)C2)c1` (stereo not drawn) [Compound A-173, 3-[[4-[3-fluoro-5-isobutyl-2-(2H-tetrazol-5-yl)phenyl]-2-methyl-piperazin-1-yl]methyl]pyridazine] are 4 µL/min/mg, 18.5% and 17.2%.
The matching figures for `Cc1cc(CN2CCN(c3cc(CC(C)C)ccc3-c3nn[nH]n3)CC2)no1` [Compound A-82, 3-[[4-[5-isobutyl-2-(2H-tetrazol-5-yl)phenyl]piperazin-1-yl]methyl]-5-methyl-isoxazole]: 15 µL/min/mg, 9.89% and 32.1%.
